This is an account of results in BindingDB's records for doi:10.1016/j.bmcl.2007.11.134 (Korea Institute of Science and Technology, 2008).

Biological target in the first assay: not listed separately
Nature of the assay: Inhibition of HIV1 reverse transcriptase K103N mutant by HeLa-MAGI assay.
As for `Cc1cc(S(N)(=O)=O)ccc1NC(=O)COc1ccc(Cl)cc1C(=O)c1cncc(C#N)c1`, the IC50 was 141 nM.
Same read-out and setting: the result for `COc1ccc(NC(=O)COc2ccc(Cl)cc2C(=O)c2cc(F)cc(F)c2)cn1` reads 72 nM.
With `Cc1c(C(C)C)s/c(=N\S(=O)(=O)c2cccc([N+](=O)[O-])c2)n1C` [N-(3,4-Dimethyl-5-isopropyl-1,3-thiazol-2(3H)-ylidene)-3-nitrobenzenesulfonamide], half-maximal inhibition (IC50) was put at 20000 nM. This IC50 is about 280-fold higher than that of the compound before.
With `CC(C)c1s/c(=N\S(=O)(=O)c2cc(Cl)ccc2O)n(C)c1Cl` [5-chloro-N-[(2Z)-4-chloro-3-methyl-5-(propan-2-yl)-2,3-dihydro-1,3-thiazol-2-ylidene]-2-hydroxybenzene-1-sulfonamide], the IC50 was determined as 158 nM.
Same read-out and setting: the result for `Cc1cc(S(N)(=O)=O)ccc1NC(=O)COc1ccc(Cl)cc1C(=O)c1cc(C#N)cc(C(F)(F)F)c1` reads 1.1 nM.
Still for that read-out and setting: the result for `Cc1cc(C)cc(C(=O)c2cc(Cl)ccc2OCC(=O)Nc2ccc(S(N)(=O)=O)cc2C)c1` reads 3.3 nM.
In turn, `Cc1cc(C#N)cc(C(=O)c2cc(Cl)ccc2OCC(=O)Nc2ncc(S(N)(=O)=O)cc2C)c1` returned an IC50 of 93 nM. Against the preceding compound, the IC50 is about 28-fold higher.
`Cc1cc(C#N)cc(C(=O)c2cc(Cl)ccc2OCC(=O)Nc2cnc(S(N)(=O)=O)cc2C)c1` displayed a 50% inhibitory concentration (IC50) of 7.1 nM.
In turn, `O=C(COc1ccc(Cl)cc1C(=O)c1cc(F)cc(F)c1)Nc1ccc(Cl)nc1` came in with an IC50 of 68 nM.
On the same count and under the same terms, next, `CC(C)c1s/c(=N\S(=O)(=O)c2cccc([N+](=O)[O-])c2)n(C)c1C(F)(F)F` [N-[(2Z)-3-methyl-5-(propan-2-yl)-4-(trifluoromethyl)-2,3-dihydro-1,3-thiazol-2-ylidene]-3-nitrobenzene-1-sulfonamide]: 41700 nM; `CCc1s/c(=N\S(=O)(=O)c2cccc([N+](=O)[O-])c2)n(C)c1C` [N-[(2Z)-5-ethyl-3,4-dimethyl-2,3-dihydro-1,3-thiazol-2-ylidene]-3-nitrobenzene-1-sulfonamide]: 6310 nM; `CCN(CC)CCCNc1ccc(NC(=O)COc2ccc(Cl)cc2C(=O)c2cc(F)cc(F)c2)c(C)c1`: 95 nM.
As to `Cc1cc(S(N)(=O)=O)ncc1NC(=O)COc1ccc(Cl)cc1C(=O)c1cc(Cl)cc(C#N)c1`, it took 5 nM to reach half-maximal inhibition (IC50).
On the same count and under the same terms, the result for `Cc1cc(NC(=O)CCN2CCOCC2)ccc1NC(=O)COc1ccc(Cl)cc1C(=O)c1cc(F)cc(F)c1` reads 8.9 nM; that for `CNS(=O)(=O)c1ccc(NC(=O)COc2ccc(Cl)cc2C(=O)c2cc(F)cc(C(F)(F)F)c2)c(C)c1`, 2 nM; that for `Cc1c(C(C)C)s/c(=N\S(=O)(=O)c2cc(Cl)ccc2C#N)n1C` [5-chloro-2-cyano-N-[(2Z)-3,4-dimethyl-5-(propan-2-yl)-2,3-dihydro-1,3-thiazol-2-ylidene]benzene-1-sulfonamide], 6310 nM.
The same measure, in the same setting: next, `Cc1ccccc1NC(=O)COc1ccc(Cl)cc1C(=O)c1cc(F)cc(F)c1`: 38 nM; `Cc1c(C(C)(C)C)s/c(=N\S(=O)(=O)c2cc(Cl)ccc2O)n1C` [N-(5-tert-Butyl-3,4-dimethyl-1,3-thiazol-2(3H)-ylidene)-5-chloro-2-hydroxybenzenesulfonamide]: 1000 nM.
Compound `Cc1cc(N2CC[S+]([O-])CC2)ccc1NC(=O)COc1ccc(Cl)cc1C(=O)c1ccc(C#N)cc1` came in with an IC50 of 44 nM. This IC50 lies about 23-fold lower than the previous one.
Still for that read-out and setting: the result for `CC(C)c1s/c(=N\S(=O)(=O)c2cc(C#N)ccc2C#N)n(C)c1Cl` [N-(4-Chloro-5-isopropyl-3-methyl-1,3-thiazol-2(3H)-ylidene)-2,5-dicyanobenzenesulfonamide] reads 3020 nM; that for `Cc1cc(S(N)(=O)=O)ccc1NC(=O)COc1ccc(Cl)cc1C(=O)c1cc(Cl)cc(C#N)c1` [GW678248], 1 nM.
For the compound `Cc1cc(N2CC[S+]([O-])CC2)ccc1NC(=O)COc1ccc(Cl)cc1C(=O)c1ccccc1C#N`, 155 nM corresponded to half-maximal inhibition (IC50). Against the preceding compound, the IC50 is about 160-fold higher.
Turning to `Cc1cc(N2CC[S+]([O-])CC2)ccc1NC(=O)COc1ccc(Cl)cc1C(=O)c1cccc(C#N)c1`, the IC50 was 5 nM. This IC50 is about 31-fold lower than that of the compound before.
As to `Cc1cc(NCCCn2ccnc2)ccc1NC(=O)COc1ccc(Cl)cc1C(=O)c1cc(F)cc(F)c1`, 158 nM corresponded to half-maximal inhibition (IC50).
With `Cc1cc(N2CC[S+]([O-])CC2)ccc1NC(=O)COc1ccc(Cl)cc1C(=O)c1ccccc1`, inhibition was half-maximal at 100 nM (IC50).
Take `C=Cc1s/c(=N\S(=O)(=O)c2cccc([N+](=O)[O-])c2)n(C)c1C` [N-(3,4-Dimethyl-5-vinyl-1,3-thiazol-2(3H)-ylidene)-3-nitrobenzenesulfonamide]: inhibition was half-maximal at 6170 nM (IC50).
For `CC(C)c1s/c(=N\S(=O)(=O)c2cccc([N+](=O)[O-])c2)n(C)c1Cl` [thiazolidenebenzenesulfonamide deriv. 17k], the IC50 turned out to be 6920 nM.
The same measure, in the same setting: next, `Cc1cc(S(N)(=O)=O)ccc1NC(=O)COc1ccc(Cl)cc1C(=O)c1cc(F)cc(C(F)(F)F)c1` [GW4511]: 2 nM; `Cc1c(C(C)(C)C)s/c(=N\S(=O)(=O)c2ccccc2O)n1C` [N-[(2Z)-5-tert-butyl-3,4-dimethyl-2,3-dihydro-1,3-thiazol-2-ylidene]-2-hydroxybenzene-1-sulfonamide]: 31600 nM.
For the compound `COCCOCCOc1ccc(NC(=O)COc2ccc(Cl)cc2C(=O)c2cc(F)cc(C(F)(F)F)c2)c(C)c1`, the IC50 stood at 16 nM. This IC50 is about 2000-fold lower than that of the compound before.
The same measure, in the same setting: the result for `Cc1cc(OCCCNC(N)=O)ccc1NC(=O)COc1ccc(Cl)cc1C(=O)c1cc(F)cc(C(F)(F)F)c1` reads 4 nM.
In turn, `Cc1cc(S(N)(=O)=O)ccc1NC(=O)COc1ccc(Cl)cc1C(=O)c1cc(Cl)cc(Br)c1` showed an IC50 of 6.2 nM.
As for `Cc1cc(S(=O)(=O)N(C)C)ccc1NC(=O)COc1ccc(Cl)cc1C(=O)c1cc(F)cc(C(F)(F)F)c1`, the IC50 turned out to be 6 nM.
`Cc1cc(C#N)cc(C(=O)c2cc(Cl)ccc2OCC(=O)Nc2ccc(S(N)(=O)=O)cc2C)c1` had a 50% inhibitory concentration (IC50) of 0.891 nM.
Same read-out and setting: next, `Cc1cc(OCCCS(N)(=O)=O)ccc1NC(=O)COc1ccc(Cl)cc1C(=O)c1cc(F)cc(C(F)(F)F)c1` [GW3011]: 4 nM; `Cc1cc(Cl)cc(C(=O)c2cc(Cl)ccc2OCC(=O)Nc2ccc(S(N)(=O)=O)cc2C)c1`: 3.6 nM; `Cc1cc(S(N)(=O)=O)ccc1NC(=O)COc1ccc(Cl)cc1C(=O)c1cccc(C#N)c1`: 1.5 nM.
As to `Cc1nc(S(N)(=O)=O)ccc1NC(=O)COc1ccc(Cl)cc1C(=O)c1cc(Cl)cc(C#N)c1`, the IC50 amounted to 3 nM.
In turn, `COc1cc(OC)cc(C(=O)c2cc(Cl)ccc2OCC(=O)Nc2ccc(S(N)(=O)=O)cc2C)c1` displayed an IC50 of 372 nM.
For the compound `Cc1c(C(C)C)s/c(=N\S(=O)(=O)c2cc(C#N)ccc2C#N)n1C` [thiazolidenebenzenesulfonamide deriv.], the 50% inhibitory concentration (IC50) was determined as 3980 nM.
Still for that read-out and setting: next, `Cc1cc(C#N)cc(C(=O)c2cc(Cl)ccc2OCC(=O)Nc2ccc(S(N)(=O)=O)nc2C)c1`: 6 nM; `Cc1c(C(C)C)s/c(=N\S(=O)(=O)c2cc(Br)ccc2C#N)n1C` [5-Bromo-2-cyano-N-(5-isopropyl-3,4-dimethyl-1,3-thiazol-2(3H)-ylidene)benzenesulfonamide]: 3980 nM.
The same measure, in the same setting: the result for `CC(C)c1s/c(=N\S(=O)(=O)c2cc(Br)ccc2O)n(C)c1Cl` [5-bromo-N-[(2Z)-4-chloro-3-methyl-5-(propan-2-yl)-2,3-dihydro-1,3-thiazol-2-ylidene]-2-hydroxybenzene-1-sulfonamide] reads 40 nM; that for `Cc1cc(NCCCN2CCCC2)ccc1NC(=O)COc1ccc(Cl)cc1C(=O)c1cc(F)cc(F)c1`, 110 nM.
As for `Cc1cc(S(N)(=O)=O)ccc1NC(=O)COc1ccc(Cl)cc1C(=O)c1cc(Br)cc(C(F)(F)F)c1`, 93 nM corresponded to half-maximal inhibition (IC50). This IC50 and that of the compound before are within 1.5-fold of each other.
Still for that read-out and setting: the result for `Cc1c(C(C)(C)C)s/c(=N\S(=O)(=O)c2cc(Cl)ccc2N)n1C` [2-amino-N-[(2Z)-5-tert-butyl-3,4-dimethyl-2,3-dihydro-1,3-thiazol-2-ylidene]-5-chlorobenzene-1-sulfonamide] reads 15800 nM.
Compound `Cc1c(C(C)(C)C)s/c(=N\S(=O)(=O)c2cccc(Cl)c2)n1C` [N-[(2Z)-5-tert-butyl-3,4-dimethyl-2,3-dihydro-1,3-thiazol-2-ylidene]-3-chlorobenzene-1-sulfonamide] yielded an IC50 of 10000 nM. This IC50 lies about 1.6-fold lower than the previous one.
For the compound `CC(C)c1s/c(=N\S(=O)(=O)c2cc(Cl)ccc2C#N)n(C)c1Cl` [5-Chloro-N-(4-chloro-5-isopropyl-3-methyl-1,3-thiazol-2(3H)-ylidene)-2-cyanobenzenesulfonamide], the half-maximal inhibitory concentration (IC50) is 3980 nM.
Still for that read-out and setting: the result for `Cc1[nH]/c(=N/S(=O)(=O)c2cccc([N+](=O)[O-])c2)sc1C(C)(C)C` reads 32400 nM.

In the next assay the target is Reverse transcriptase protein (Human immunodeficiency virus 1, UniProt Q9WJQ2). The assay is described as follows: Inhibition of HIV1 reverse transcriptase K103N mutant by HeLa-MAGI assay.
Consider `Cc1c(C(C)(C)C)s/c(=N\S(=O)(=O)c2cccc([N+](=O)[O-])c2)n1C` [3-substituted thiazolidene deriv. 17a], for which the half-maximal inhibitory concentration (IC50) was found to be 12900 nM. This lies in the double-digit micromolar range.

For orientation: IC50 means the concentration that gives 50% inhibition. Lower therefore signals greater potency.
